Reference: patent publication US8501792B2, “Treating cancer with desthiazolyl ritonavir” (priority 2008, dated 2013)

System: Purified mammalian Hsp90
Assay: Hsp90 binding on CM-5 BIAcore chip (surface plasmon resonance)
Excerpt: Inhibition of Hsp90 can be evaluated by surface plasmon resonance studies of a compound of formula I, using a CM-5 Biacore chip on which Hsp90 (Stressgen, Ann Arbor) has been immobilized. This method can also be used to evaluate the chaperoning activity of a compound of formula I by evaluation of luciferase refolding. See Examples 4 and 9.
Purified mammalian Hsp90 was attached to a CM-5 BIAcore chip through an NHS ester linkage. After attachment of the Hsp90 and blocking the chip with BSA, M1 drug or a 17-AAG control was circulated through a microfluidic circuit and change in refractive index was measured by quantification of the RU value for each drug concentration. In the case of the 17-AAG control the binding was saturable and based on the kon and koff measurements, the KD was estimated to be in the 1 microM range. […] This means that there are significant differences in the binding of M-1 and may indicate alteration of the Hsp90 structure.

C=CCNC1=C2C[C@@H](C)C[C@H](OC)[C@H](O)[C@@H](C)/C=C(\C)[C@H](OC(N)=O)[C@@H](OC)/C=C\C=C(/C)C(=O)NC(=CC1=O)C2=O [17-AAG] was tested, and the “binding to Hsp90, saturability” value (RU value versus drug concentration, FIG. 11) was “saturable” and the Kd (estimated from kon and koff measurements) was about 1000 nM.
